Reference: US10624894B2, “Pharmaceutical product and communication tool” (ScientificMed Sweden AB, priority 2011, dated 2020)

What was measured:
[1] = source: EPAR summary for Lyrica; cited from earlier work
[2] = system: patients with newly reported Acute Coronary Syndrome (ACS); assay: Study 5: randomized controlled trial, Ticagrelor with QFM (active group) versus Ticagrelor with e-diary (control group); assay type: in vivo, human
Text: The study design was two different patient groups with at least eighty patients in each group. The group using the invention, hereafter called the active group, used their own mobile phones to use the QFM described above and the actual drug Ticagrelor. The other group, hereafter called the control group, used their own mobile phones with just an e-diary (control app) and the actual drug Ticagrelor.
Study design: Randomized Controlled Trial with two different patient groups
Intervention to evaluate: The invention using the above described QFM in the patients mobile phones, integrated with the actual drug
Actual used drug: Ticagrelor (Brilique)
Control: e-diary. The e-diary consisted of the following items and functionalities, enabling data for study evaluation • The questions concerning adherence to the specific drug, being able to answer whether the patient took the drug in the morning and/or in the evening, for the actual day and the day before. • A reminder through a text message if the patient missed to answer the adherence questions during one day
Patient group: Patients with newly reported Acute Coronary Syndrome (ACS).
Number of patients in total: 166
Length of using the invention: Six months
Primary objective: Assess the non-adherence to the drug according to the prescription recommendation in patients using the invention compared to patients who only use the control-app
The primary endpoint definition was according to the following: Composite endpoint of adherence failure- or treatment gap events registered by patients • Adherence failure events; • More than 14% missed doses during an observation cycle of 7 days. The first missed dose of the drug initiates an observation cycle of 1 week. If a second missed dose is registered within this week an adherence failure event is registered. The third missed dose initiates a new observation cycle, and the process restarts. • Treatment gap events; • patient reported gaps of more than 4 consecutive doses
Secondary objectives: Comparison between active group and control group concerning; • Adherence to treatment of the specific drug • Cardiovascular risk factors: • BMI • Physical activity • Blood pressure • LDL-cholesterol • Smoking cessation • Quality of life (EQ5D-VAS)
The patients with ACS was randomly selected to one of the study arms. After inclusion patients in the active group used the described QFM in relation to the actual drug during the actual period of time.

[3] = Active group (QFM + Ticagrelor)
[4] = Control group (e-diary + Ticagrelor)

For `CC(C)C[C@H](CN)CC(=O)O` [A, pregabalin], which “Common side-effects which may affect more than 1 person in 100 (among others)” value [1] is on record?
The value was “dry mouth, nausea”.

What about the “Very common side-effects which may affect more than 1 person in 10” value [1] of the same molecule?
Its value is “dizziness, tiredness”.

Which LDL change [2, 3] does the source give for `CCCSc1nc(N[C@@H]2C[C@H]2c2ccc(F)c(F)c2)c2nnn([C@@H]3C[C@H](OCCO)[C@@H](O)[C@H]3O)c2n1` [Ticagrelor, ticagrelor] here?
The LDL change was −1.8.

And the Physical activity improvements [2, 3]?
The Physical activity improvements was 50%.

What about the “Quality of life (EQ5D-VAS) change” value [2, 3] of the same molecule?
The value was “+14.7”.

What about the Smoking cessation [2, 3] of the same molecule?
The Smoking cessation was −80%.

And the LDL change [2, 4]?
Its LDL change is −1.0.

And the Physical activity improvements [2, 4]?
Its Physical activity improvements is 32%.

What about the “Quality of life (EQ5D-VAS) change” value [2, 4] of the same molecule?
Its value is “+8.4”.

And the Smoking cessation [2, 4]?
Its Smoking cessation is −45%.

And the “BMI; average decrease in weight” value ([2]; Patients having a BMI >30, group not stated)?
Its value is 5%.

And the “patient deaths during the usage of the invention” value ([2]; six months)?
Its value is “No patients in the study died”.
